Biological target: T1, human SLC6A19 and TMEM27 (Homo sapiens, UniProt Q695T7)
T1 construct: expressed in transfected cells
T1 sequence (Q695T7 1-634): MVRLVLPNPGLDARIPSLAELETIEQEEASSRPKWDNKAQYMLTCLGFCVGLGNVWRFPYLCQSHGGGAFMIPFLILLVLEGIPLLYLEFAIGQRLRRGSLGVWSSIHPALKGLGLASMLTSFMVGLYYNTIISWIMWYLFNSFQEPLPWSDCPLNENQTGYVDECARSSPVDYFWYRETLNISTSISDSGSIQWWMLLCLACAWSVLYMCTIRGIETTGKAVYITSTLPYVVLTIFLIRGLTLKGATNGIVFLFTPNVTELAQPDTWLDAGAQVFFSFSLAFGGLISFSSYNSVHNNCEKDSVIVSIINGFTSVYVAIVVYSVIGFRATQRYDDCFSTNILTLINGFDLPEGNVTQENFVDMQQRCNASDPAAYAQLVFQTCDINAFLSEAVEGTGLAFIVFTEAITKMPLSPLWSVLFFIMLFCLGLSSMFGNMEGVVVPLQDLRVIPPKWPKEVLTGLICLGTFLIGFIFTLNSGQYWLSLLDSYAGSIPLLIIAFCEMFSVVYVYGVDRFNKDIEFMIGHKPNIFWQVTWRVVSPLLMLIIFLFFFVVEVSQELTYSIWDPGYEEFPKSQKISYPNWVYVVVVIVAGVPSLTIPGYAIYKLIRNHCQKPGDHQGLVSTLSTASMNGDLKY
T1 sequence (Q9HBJ8 15-222 partner): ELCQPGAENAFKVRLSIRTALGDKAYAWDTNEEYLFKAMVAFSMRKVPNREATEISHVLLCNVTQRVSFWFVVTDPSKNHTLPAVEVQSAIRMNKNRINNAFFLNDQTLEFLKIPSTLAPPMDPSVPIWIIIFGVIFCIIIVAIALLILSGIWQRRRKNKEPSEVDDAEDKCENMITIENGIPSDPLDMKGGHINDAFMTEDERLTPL
Test: Radiolabelled (3H) leucine uptake in CHO cells with doxycycline-inducible expression of human SLC6A19 and TMEM27 (Example B-1)
Format: cell-based
Settings: CHO cells with doxycycline-inducible expression of human SLC6A19 and TMEM27, read-out: SLC6A19_Radioligand Uptake Assay IC50
Procedure, shortened: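 CHO cells were induced with doxycycline for 18 h at 37 °C, washed in HBSS, then exposed to compounds for 1 h: 8-point, 3-fold dilutions in duplicate, 0.5% DMSO final. Uptake measured by scintillation counting after 2 h shaking. Activity normalized with positive control as 0% and DMSO as 100%.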

| SMILES | IC50 |
| --- | --- |
| CCC(=O)NCc1cc2c(F)cc(OCc3ccon3)cc2[nH]1 [Compound 517, N-((4-fluoro-6-(isoxazol-3-ylmethoxy)-1H-indol-2-yl)methyl)propionamide] | 243 nM |
| Cc1cc(COc2cc3[nH]c(CNC(=O)CC(F)F)cc3cc2F)on1 [Compound 518, 3,3-difluoro-N-((5-fluoro-6-((3-methylisoxazol-5-yl)methoxy)-1H-indol-2-yl)methyl)propanamide] | 179 nM |
| Cc1cc(COc2cc3[nH]c(CNC(=O)CC(F)F)cc3cc2Cl)on1 [Compound 519, N-((5-chloro-6-((3-methylisoxazol-5-yl)methoxy)-1H-indol-2-yl)methyl)-3,3-difluoropropanamide] | 118 nM |
| Cc1cc(COc2cc3[nH]c(CNC(=O)Cn4ccnn4)cc3cc2Cl)on1 [Compound 520, N-((5-chloro-6-((3-methylisoxazol-5-yl)methoxy)-1H-indol-2-yl)methyl)-2-(1H-1,2,3-triazol-1-yl)acetamide] | 6730 nM |
| Cc1cc(COc2cc3[nH]c(CNC(=O)Cn4cccn4)cc3cc2Cl)on1 [Compound 521, N-((5-chloro-6-((3-methylisoxazol-5-yl)methoxy)-1H-indol-2-yl)methyl)-2-(1H-pyrazol-1-yl)acetamide] | > 7970 nM |
| Cc1cc(COc2cc3[nH]c(CNC(=O)c4ccno4)cc3cc2Cl)on1 [Compound 522, N-((5-chloro-6-((3-methylisoxazol-5-yl)methoxy)-1H-indol-2-yl)methyl)isoxazole-5-carboxamide] | 199 nM |
| CC(=O)NCc1cc2c(F)cc(OCc3cscn3)cc2[nH]1 [Compound 525, N-((4-fluoro-6-(thiazol-4-ylmethoxy)-1H-indol-2-yl)methyl)acetamide] | 157 nM |
| CC1(C(=O)NCc2cc3c(F)c(F)c(OCc4cscn4)cc3[nH]2)CC1 [Compound 526, N-((4,5-difluoro-6-(thiazol-4-ylmethoxy)-1H-indol-2-yl)methyl)-1-methylcyclopropane-1-carboxamide] | 156 nM |
| CC(=O)NCc1cc2c(F)cc(OCc3cc(C)no3)cc2[nH]1 [Compound 527, N-((4-fluoro-6-((3-methylisoxazol-5-yl)methoxy)-1H-indol-2-yl)methyl)acetamide] | 4610 nM |
| Cc1cc(COc2cc3[nH]c(CNC(=O)[C@@H](C)CO)cc3cc2Cl)on1 [Compound 535, (S)-N-((5-chloro-6-((3-methylisoxazol-5-yl)methoxy)-1H-indol-2-yl)methyl)-3-hydroxy-2-methylpropanamide] | 1650 nM |
| Cc1cc(COc2cc3[nH]c(CNC(=O)[C@H](C)CO)cc3cc2Cl)on1 [Compound 536, (R)-N-((5-chloro-6-((3-methylisoxazol-5-yl)methoxy)-1H-indol-2-yl)methyl)-3-hydroxy-2-methylpropanamide] | 1360 nM |
| Cc1cc(COc2cc3[nH]c(CNC(=O)[C@@H]4C[C@H]4F)cc3cc2Cl)on1 [Compound 537, (1S,2R)-N-((5-chloro-6-((3-methylisoxazol-5-yl)methoxy)-1H-indol-2-yl)methyl)-2-fluorocyclopropane-1-carboxamide] | 108 nM |
| Cc1cc(COc2cc3[nH]c(CNC(=O)[C@H]4C[C@@H]4F)cc3cc2Cl)on1 [Compound 538, (1R,2S)-N-((5-chloro-6-((3-methylisoxazol-5-yl)methoxy)-1H-indol-2-yl)methyl)-2-fluorocyclopropane-1-carboxamide] | 59.4 nM |
| Cc1cc(COc2cc3[nH]c(CNC(=O)[C@H]4C[C@H]4F)cc3cc2Cl)on1 [Compound 539, (1R,2R)-N-((5-chloro-6-((3-methylisoxazol-5-yl)methoxy)-1H-indol-2-yl)methyl)-2-fluorocyclopropane-1-carboxamide] | 123 nM |
| Cc1cc(COc2cc3[nH]c(CNC(=O)[C@@H]4C[C@@H]4F)cc3cc2Cl)on1 [Compound 540, (1S,2S)-N-((5-chloro-6-((3-methylisoxazol-5-yl)methoxy)-1H-indol-2-yl)methyl)-2-fluorocyclopropane-1-carboxamide] | 131 nM |
| O=C(NCc1cc2cc(Cl)c(OCc3cscn3)cc2[nH]1)[C@H]1C[C@H]1F [Compound 541, (1R,2R)-N-((5-chloro-6-(thiazol-4-ylmethoxy)-1H-indol-2-yl)methyl)-2-fluorocyclopropane-1-carboxamide] | 141 nM |

| SMILES | IC50 |
| --- | --- |
| O=C(NCc1cc2cc(Cl)c(OCc3cscn3)cc2[nH]1)[C@@H]1C[C@@H]1F [Compound 542, (1S,2S)-N-((5-chloro-6-(thiazol-4-ylmethoxy)-1H-indol-2-yl)methyl)-2-fluorocyclopropane-1-carboxamide] | 123 nM |
| O=C(NCc1cc2cc(Cl)c(OCc3cscn3)cc2[nH]1)[C@@H]1C[C@H]1F [Compound 543, (1S,2R)-N-((5-chloro-6-(thiazol-4-ylmethoxy)-1H-indol-2-yl)methyl)-2-fluorocyclopropane-1-carboxamide] | 145 nM |
| O=C(NCc1cc2cc(Cl)c(OCc3cscn3)cc2[nH]1)[C@H]1C[C@@H]1F [Compound 544, (1R,2S)-N-((5-chloro-6-(thiazol-4-ylmethoxy)-1H-indol-2-yl)methyl)-2-fluorocyclopropane-1-carboxamide] | 119 nM |
| O=C(NCc1cc2cc(Cl)c(OCc3cscn3)cc2[nH]1)C12CC(C1)C2 [Compound 552, N-((5-chloro-6-(thiazol-4-ylmethoxy)-1H-indol-2-yl)methyl)bicyclo[1.1.1]pentane-1-carboxamide] | 340 nM |
| O=C(NCc1cc2cc(Cl)c(OCc3cscn3)cc2[nH]1)C1CC12CC2 (centres unmarked) [Compound 553, N-((5-chloro-6-(thiazol-4-ylmethoxy)-1H-indol-2-yl)methyl)spiro[2.2]pentane-1-carboxamide] | 342 nM |
| O=C(CC(F)(F)F)NCc1cc2cc(Cl)c(OCc3cscn3)cc2[nH]1 [Compound 554, N-((5-chloro-6-(thiazol-4-ylmethoxy)-1H-indol-2-yl)methyl)-3,3,3-trifluoropropanamide] | 214 nM |
| O=C(CC12CC(C1)C2)NCc1cc2cc(Cl)c(OCc3cscn3)cc2[nH]1 [Compound 555, 2-(bicyclo[1.1.1]pentan-1-yl)-N-((5-chloro-6-(thiazol-4-ylmethoxy)-1H-indol-2-yl)methyl)acetamide] | 3040 nM |
| O=C(NCc1cc2cc(Cl)c(OCc3cscn3)cc2[nH]1)C12CCC(CC1)C2 [Compound 556, N-((5-chloro-6-(thiazol-4-ylmethoxy)-1H-indol-2-yl)methyl)bicyclo[2.2.1]heptane-1-carboxamide] | 1200 nM |
| O=C(NCc1cc2cc(Cl)c(OCc3cscn3)cc2[nH]1)C1CC2(CCC2)C1 [Compound 557, N-((5-chloro-6-(thiazol-4-ylmethoxy)-1H-indol-2-yl)methyl)spiro[3.3]heptane-2-carboxamide] | > 8240 nM |
| O=C(NCc1cc2cc(Cl)c(OCc3cscn3)cc2[nH]1)C1CC12CCC2 (centres unmarked) [Compound 558, N-((5-chloro-6-(thiazol-4-ylmethoxy)-1H-indol-2-yl)methyl)spiro[2.3]hexane-1-carboxamide] | 1030 nM |
| O=C(NCc1cc2cc(Cl)c(OCc3cscn3)cc2[nH]1)C1(C(F)F)CC1 [Compound 559, N-((5-chloro-6-(thiazol-4-ylmethoxy)-1H-indol-2-yl)methyl)-1-(difluoromethyl)cyclopropane-1-carboxamide] | 196 nM |
| CC1CC(C(=O)NCc2cc3cc(Cl)c(OCc4cscn4)cc3[nH]2)C1 (centres unmarked) [Compound 561, N-((5-chloro-6-(thiazol-4-ylmethoxy)-1H-indol-2-yl)methyl)-3-methylcyclobutane-1-carboxamide] | 570 nM |
| [2H]C([2H])([2H])C(=O)NCc1cc2cc(Cl)c(OCc3cc(C)no3)cc2[nH]1 [Compound 562, N-((5-chloro-6-((3-methylisoxazol-5-yl)methoxy)-1H-indol-2-yl)methyl)acetamide-2,2,2-d3] | 83.3 nM |
| Cc1cc(COc2cc3[nH]c(CNC(=O)C(F)F)cc3cc2Cl)on1 [Compound 563, N-((5-chloro-6-((3-methylisoxazol-5-yl)methoxy)-1H-indol-2-yl)methyl)-2,2-difluoroacetamide] | 82.2 nM |
| Cc1cc(COc2cc3[nH]c(CNC(=O)CC(F)(F)F)cc3cc2Cl)on1 [Compound 564, N-((5-chloro-6-((3-methylisoxazol-5-yl)methoxy)-1H-indol-2-yl)methyl)-3,3,3-trifluoropropanamide] | 174 nM |
| Cc1cc(COc2cc3[nH]c(CNC(=O)C4(C(F)F)CC4)cc3cc2Cl)on1 [Compound 565, N-((5-chloro-6-((3-methylisoxazol-5-yl)methoxy)-1H-indol-2-yl)methyl)-1-(difluoromethyl)cyclopropane-1-carboxamide] | 286 nM |

— patent publication US20240199546A1, “INHIBITORS OF SOLUTE CARRIER FAMILY 6A MEMBER 19 (SLC6A19) AND METHODS OF USE THEREOF” (Maze Therapeutics, Inc., priority 2022, published 2024)
